Data as given in paper PMC4111603 (PLoS ONE, 2014).
Read-outs that look alike come from different tables or passages of the source.

Columns and labels:
[1] = biological target: T1, rat brain FAAH (Rattus norvegicus, UniProt P97612); test: FAAH hydrolysis of [3H]AEA in rat brain homogenates; assay type: biochemical; details: 0.5 µM AEA
T1 construct: FAAH activity was quantified by measuring hydrolysis of tritium labelled AEA in rat brain homogenates; from tissue; host or cells: rat brain (minus cerebella), Wistar or Sprague-Dawley, washed membrane pellets
T1 sequence (P97612 1-579): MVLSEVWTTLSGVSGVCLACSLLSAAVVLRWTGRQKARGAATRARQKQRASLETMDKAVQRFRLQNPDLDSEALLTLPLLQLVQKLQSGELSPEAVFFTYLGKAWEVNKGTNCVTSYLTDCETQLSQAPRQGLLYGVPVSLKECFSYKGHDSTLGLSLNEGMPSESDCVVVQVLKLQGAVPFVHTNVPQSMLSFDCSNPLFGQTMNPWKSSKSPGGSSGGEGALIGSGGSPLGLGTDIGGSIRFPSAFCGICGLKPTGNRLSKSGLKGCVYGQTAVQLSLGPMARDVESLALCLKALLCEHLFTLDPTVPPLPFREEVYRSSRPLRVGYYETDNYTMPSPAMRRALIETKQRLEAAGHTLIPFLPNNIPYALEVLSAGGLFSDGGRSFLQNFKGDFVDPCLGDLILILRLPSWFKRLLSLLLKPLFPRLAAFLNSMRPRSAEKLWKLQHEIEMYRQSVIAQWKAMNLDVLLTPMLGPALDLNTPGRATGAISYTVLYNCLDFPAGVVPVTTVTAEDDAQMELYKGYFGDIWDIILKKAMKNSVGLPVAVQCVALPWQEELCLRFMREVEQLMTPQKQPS
Procedure: Brains (minus cerebella) from adult Wistar or Sprague-Dawley stored at −80°C were thawed, weighed and homogenized in cold buffer (20 mM HEPES, 1 mM MgCl2 pH 7.0). Homogenates were centrifuged at 35,000 g at 4°C for 20 min and the pellet was resuspended in homogenization buffer (repeated twice) before being incubated at 37°C for 15 min to degrade any endogenous substrate that might interfere with the FAAH assay. Following centrifugation, the pellets were resuspended in cold buffer (50 mM Tris-HCl, 1 mM EDTA, 3 mM MgCl2, pH 7.4). The protein concentration of each homogenates was determined according to the Bradford assay after which the samples were frozen in aliquots at −80°C until used for FAAH assay. Ethical permission for the animal experiments was obtained from the local animal research ethical committee (Umeå Ethical Committee for Animal Research, Umeå, Sweden).
The assay was performed according to Boldrup et al.. Homogenates (1 µg protein per assay) diluted in 10 mM Tris-HCl, 1 mM EDTA, pH 7.4 or pH 5.1 were mixed with test substance dissolved in DMSO (total concentration in assay 5%) at an ambient temperature of 4°C. Reactions were initiated by addition of AEA-[^3H] (assay concentration 0.5 µM) in 10 mM Tris-HCl, 1 mM EDTA, pH 7.4 containing 10 mg ml^−1 fatty acid-free bovine serum and incubation at 37°C which was allowed to proceed for 10 min. […] Blank samples contained buffer instead of homogenate and DMSO (5%). The assay volume of each sample was 200 µl. The pH values given in the text were determined by measurement at 37°C of scaled-up mixtures of homogenization and assay buffers. The reaction was terminated by addition of 400 µl activated charcoal (80 µl activated charcoal +320 µl 0.5 M HCl) and placement of samples on ice. Samples were kept in room temperature for 45–60 min before being centrifuged at 2500 rpm for 10 min. Aliquots (200 µl) of the supernatant was analyzed for tritium content by liquid scintillation with quench correction.
(§1) FAAH inhibition was calculated using log(inhibitor) vs. response with variable slope (four parameters) algorithm in the GraphPad Prism computer program (GraphPad Software Inc., San Diego, CA. USA). […] The two curves were compared by Akaike’s informative criteria and the best fit was chosen. Initial COX activities were calculated as the change in oxygen tension between 10 and 30 seconds after addition of enzyme.

[2] = biological target: T2, human recombinant COX-2 (Homo sapiens, UniProt P35354); test: COX-2 oxygenation of arachidonic acid, oxygen electrode; assay type: biochemical; details: for COX-2 activity (% of control): substrate AA 10 µM, initial activity 10-30 s, n = 3
T2 construct: purchased Cayman Chemical Co. 60122
T2 sequence (P35354 18-604): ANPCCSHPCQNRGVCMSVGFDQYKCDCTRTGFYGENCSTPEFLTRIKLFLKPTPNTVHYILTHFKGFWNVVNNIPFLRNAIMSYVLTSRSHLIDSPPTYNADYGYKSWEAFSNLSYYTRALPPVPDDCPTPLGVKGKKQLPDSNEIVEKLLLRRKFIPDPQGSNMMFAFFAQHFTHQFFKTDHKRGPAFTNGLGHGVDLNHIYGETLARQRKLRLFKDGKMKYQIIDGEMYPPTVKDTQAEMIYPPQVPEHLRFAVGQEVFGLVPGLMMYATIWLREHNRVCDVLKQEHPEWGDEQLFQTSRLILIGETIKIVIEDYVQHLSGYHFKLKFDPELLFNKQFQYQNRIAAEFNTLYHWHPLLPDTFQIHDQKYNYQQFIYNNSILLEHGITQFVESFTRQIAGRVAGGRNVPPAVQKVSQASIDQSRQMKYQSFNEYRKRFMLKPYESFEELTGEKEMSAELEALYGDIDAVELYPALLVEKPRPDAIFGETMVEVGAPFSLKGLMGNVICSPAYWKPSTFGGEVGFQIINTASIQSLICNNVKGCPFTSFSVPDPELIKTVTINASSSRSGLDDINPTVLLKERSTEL
Procedure: The assay was performed according to Meade et al. with minor modifications using an oxygen electrode chamber with integral stirring (Oxygraph System, Hansatech Instruments, King’s Lynn, U.K.). The electrode was calibrated to ambient temperature and air pressure. Samples were prepared in 0.1 M Tris-HCl buffer pH 7.4 containing 1 µM haematin, 2 mM phenol, 5 mM EDTA, 10 µM substrate (AA or 2-AG) (final assay volume was 2 ml). After addition of test substance dissolved in DMSO (final assay concentration 1%) a baseline was established for 5 min before initiation of reaction by addition of 200 units COX-1 or COX-2. Change in oxygen consumption was monitored for approximately 5 min.
as §1

[3] = pH 6.0, read-out: IC50, inhibition of [3H]AEA hydrolysis (converted)
[4] = pH 6.0, read-out: pI50, inhibition of [3H]AEA hydrolysis (converted)
[5] = pH 7.3, read-out: IC50, inhibition of [3H]AEA hydrolysis (converted)
[6] = pH 7.3, read-out: pI50, inhibition of [3H]AEA hydrolysis (converted)

SMILES | IC50 [1, 3] [µM] | IC50 [1, 4] [µM] | inhibition at 1000 µM ([1]; read-out: % inhibition of [3H]AEA hydrolysis @ 1000 µM, pH 7.3, 1000 µM compound) [%] | COX-2 activity (% of control) ([2]; 100 µM NSAID) | COX-2 activity (% of control) ([2]; 300 µM NSAID) | IC50 [1, 5] [µM] | IC50 [1, 6] [µM] | inhibition of COX-2-catalysed oxygenation of arachidonic acid (result in words) [2] | COX-2 activity (% of control) ([2]; 30 µM NSAID)
CC(C(=O)O)c1ccc(CC(C)(C)O)cc1 (stereo not shown) [2′-OH-Ibuprofen, 2-[4-(2-hydroxy-2-methylpropyl)phenyl]propionic acid] | 380 | 380 | 15 ± 7 | 98±17 % of control | 83±12 % of control | – | – | – | –
CC(CO)Cc1ccc(C(C)C(=O)O)cc1 (stereo not shown) [3′-OH-Ibuprofen, 2-[4-(3-hydroxy-2-methylpropyl)phenyl]propionic acid] | 200 | 200 | – | 103±21 % of control | 84±10 % of control | 990 | 977 | – | –
CC(C(=O)O)c1ccc(-c2ccc(O)cc2)c(F)c1 (stereo not shown) [4′-OH-Flurbiprofen] | 84 | 85.1 | – | 106±16 % of control | 106±9 % of control | 310 | 316 | failed to inhibit | 88±16 % of control
